Each structure is given as a SMILES string. Read-outs that look alike come from different tables or passages of the source. Some results are limits rather than exact numbers.

The subject of one data set is AKT1, GSK3, and mTOR. Briefly: Western blot of PI3K/AKT regulated signaling proteins. Particulars: Raji and SU-DHL-4 cells; 0, 50 nM, 100 nM; 0, 12 hours, 24 hours. In kind it is cell-based, human. The procedure:
Western blot analyses were performed as previously described. Briefly, total cell lysates were separated by SDS-PAGE gel and transferred to nitrocellulose membrane. The membranes were blocked with 5% non-fat milk, probed with specific antibodies, and visualized using the Odyssey scanner (LiCor Inc., Lincoln, Nebr.).

Data set [1] deals with HL60, K562, MOLM14 and SU-DHL-4 cell lines. Briefly: IC50 of Brusatol in less and more sensitive cell lines. Type of data set: cell-based, human. As to conditions: 72 hours. The method, then: FIGS. 5A-5F: PI3K family of proteins is crucial for Brusatol-mediated inhibitory effects. FIG. 5A: IC50 assays of Brusatol were determined in the indicated cancer cells. All of the cells were treated for 72 hours. […] NS, not significant. […] Then cells were fixed and stained with PI. Flow cytometry assays were performed to determine cell cycle progression. The subG1 population in cells was labeled as the percentage. […] FIG. 5F: The described cells were incubated with Brusatol (0, 50 nM, 100 nM) for different periods (0, 12 hours, 24 hours).

For the next data set, the system named is NOD/SCID mice. Briefly: In vivo toxicity test. Particulars: 24 days; for survival: 4 mice per group. The method, then: […]; 4 mice per group) were intraperitoneally injected with a maximum dose of […] of Brusatol, #15 or #26 compound every other day (three times per week). The survival rate was recorded to monitor the tolerance of the compounds in these mice.
[…]. Six-week-old male NOD.CB17PrkdcSCID/J (NOD/SCID) mice (Jackson Labs, Bar Harbor, Me., USA; 4 mice per group) were intraperitoneally injected with a dose of 5 mg/kg of one of three compounds—brusatol, 15, or 26—every other day, three times per week. The mice were monitored and euthanized after 24 days of treatment. […]. […] […].

In a further data set the test system is LCL1 cells. Briefly: Cell viability assay (CellTiter-Glo luminescence). In kind it is cell-based. As to conditions: Homo sapiens; LCL1, 5000 cells, 72 hours; read-out: half-maximal inhibitory concentration (IC50). (In general: ATP-based viability assays read luminescence as a measure of living cells.)
Data set [2] can be described thus: Stability in simulated intestinal fluid.
Data set [3] is described as follows: Plasma stability.
Data set [4] concerns Raji cells. Briefly: cells. Type of data set: cell-based, human. Particulars: for activity on viability of Raji cells (in words): 100 nM for 72 h.
Data set [5] can be described thus: MetID profile in mouse liver microsomes. In kind it is in vitro ADME. Particulars: 60 min of incubation. The procedure: In order to determine if 26 induces liver microsomal metabolism changes, the MetID profile of 26 in mouse liver microsomes was investigated under the same conditions as for brusatol. […] However, 87% of 26 (area %) was detected after 60 min of incubation while five identified metabolites were all in relatively small percentages.
(Liver microsomes are vesicles of endoplasmic reticulum, rich in cytochrome P450 enzymes.)

A further data set deals with K562 cells. Briefly: Cell cycle assay (PI staining, flow cytometry). As to conditions: K562, 100 nM, 48 hours. In kind it is cell-based, human. The method, then: (§1) 5 million cells were harvested, fixed with 80% ethanol for 2 hours or overnight at −20° C., then washed with PBS and incubated with Propidium iodide (PI) staining buffer (0.5 mg/ml propidium iodide in PBS with 50 μg/ml RNase A) for 30 minutes at room temperature. The stained cells were resuspended in PBS and analyzed on a FACSCalibur system (Becton Dickinson, San Jose, Calif., USA) using FlowJo software (TreeStar, San Carlos, Calif., USA).
For orientation: A flow cytometer gives signals particle by particle.

Data set [6] has as its system SU-DHL-4 cells. Briefly: Cell cycle assay (PI staining, flow cytometry). Particulars: SU-DHL-4, 100 nM, 48 hours. Type of data set: cell-based, human. The procedure: as §1
In a further data set the test system is HL-60 cells. Briefly: Cell cycle assay (PI staining, flow cytometry). Type of data set: cell-based, human. Particulars: HL-60, 100 nM, 48 hours. The method, then:
as §1

For data set [7], the system named is Raji cells. Briefly: Cell cycle assay (PI staining, flow cytometry). In kind it is cell-based, human. As to conditions: 100 nM, 48 hours. The method, then: as §1
Data set [8] can be described thus: Stability in simulated gastric fluid.
Data set [9] is described as follows: Plasma stability. The source holds these as a separate data set.
For data set [10], the system named is SU-DHL-4 cells. Briefly: Cell viability assay (CellTiter-Glo luminescence). Type of data set: cell-based. As to conditions: Homo sapiens, SU-DHL-4, 48 h, read-out: viability of cells inhibited.
Data set [11] has as its system MOLT-4, SU-DHL-6, SU-DHL-10, RPMI-8226, and LCL1. Briefly: Cell viability in five additional cell lines. Particulars: MOLT-4, SU-DHL-6, SU-DHL-10, RPMI-8226, LCL1.
Method: (§2) 5000 cells as indicated were cultured in 96-well plate with 100 μl of media. On the next day, Brusatol or associated analogs were added once to the cells without media change. After treatment, the cells were incubated with 100 μl buffer for 10 minutes at room temperature following the instructions of CellTiter-Glo kit (Promega, Madison, Wis.). Luminescence was detected using a multi-mode reader Cytation 5 (BioTek, Winooski, Vt.). Brusatol or its analogs are dissolved in 100% ethanol and diluted in 1×PBS for treatment. Two independent experiments done in duplicates were performed.
To investigate their inhibitory activities on the growth of EBV-associated lymphomas and other types of lymphomas, conjugates were first investigated for their effects on the viability of Raji cells, a Burkitt's lymphoma (BL) cell line, when treated at 100 nM for 72 h. […] These cell lines represent the cell models of a range of hematologic malignancies.
A further data set deals with MOLM14 xenografts. Briefly: In vivo tumorigenic assay using xenografts. As to conditions: 2 mg/kg intraperitoneally three times per week, two weeks. Also noted: species or system NOD/SCID mice. The procedure:
Six-week-old male NOD.CB17-Prkdc^scid/J (NOD/SCID) mice (Jackson Labs, Bar Harbor, Me., USA) were used as the human-in-mouse xeno-transplantation model. MOLM14 cells (1×10^7 cells) were injected into the subcutaneous space on the left flank of the mice. Once xenografts reached a size of 100 mm^3, Brusatol and analogs (14, 15, 26, 31) at 2 mg/kg body weight or PBS were injected intraperitoneally three times per week. Body weight and tumor size were monitored before every injection. After treatment for two weeks, the mice were euthanized by CO2 inhalation and the tumors were carefully excised. The tumor volume (mm^3) was measured and calculated using the formula (a×b×b)/2 (a, the largest diameter of two measurements; b, the smallest diameter of two measurements).

In data set [12] the test system is 13 cell lines representing a range of hematologic malignancies. Briefly: Cell viability in panel of hematologic malignancy derived cell lines. Particulars: 100 nM, 72 hours.
Method: Cell viability was determined after 72 hours by detecting luminescence. ALL, acute lymphoblastic leukemia; BL, Burkitt's lymphoma; DLBCL, diffuse large B-cell lymphoma; MCL, mantle cell lymphoma; AML, acute myeloid leukemia; MM, multiple myeloma; LCLs, lymphoblastoid cell lines.
as §2
For data set [13] the following is noted: 60 min.
For data set [14] the following is noted: 60 min. The source holds these as a separate data set.
Experiment in data set [15]: not given
This is another data set of the same source.

The mark [16] stands for this setting: 5 mg/kg intraperitoneally every other day.
The mark [17] stands for this setting: 10 mg/kg intraperitoneally every other day.

As to `COC(=O)[C@@]12OC[C@]34C([C@@H](O)[C@@H]1O)[C@@]1(C)CC(=O)C(O)=C(C)[C@@H]1C[C@H]3OC(=O)[C@H](OC(=O)C=C(C)C)[C@@H]24` (stereo partly drawn) [Brusatol, methyl (1R,2S,3S,3aS,3a1R,4R,6aR,7aR,11aS)-1,2,9-trihydroxy-8,11a-dimethyl-4-((3-methylbut-2-enoyl)oxy)-5,10-dioxo-1,4,5,6a,7,7a,10,11,11a,11b-decahydro-2H-3,3a1-(epoxymethano)dibenzo[de,g]chromene-3(3aH)-carboxylate], the “protein expression of AKT1, GSK3, and mTOR (in words)” value with AKT1, GSK3, and mTOR is reported as “significantly reduced”. In [1], the “fold more sensitive (IC50), MOLM14 and SU-DHL-4 compared to HL60 and K562” value is given as “about 10 fold”. The “mice survived (of four)” value in the data set with NOD/SCID mice (setting [16]) is on record as “three”. In addition, in the data set on NOD/SCID mice (setting [16]), the survival was determined as 75%. Moreover, the IC50 in the data set on LCL1 cells was in the range of 2 to 6 nM; with Raji cells [4] (Homo sapiens, 5000 cells, 72 hours, read-out: half-maximal inhibitory concentration (IC50)), 2 to 6 nM. In data set [2], the “Stability in simulated intestinal fluid (% at 4 h)” value is given as 100%. Moreover, the “Plasma stability remaining % at 60 min, human” value in the data set “Plasma stability [3]” worked out at 91%. Besides, the cytotoxicity at 0.1 µM in the data set on Raji cells [4] (Homo sapiens, 100 nM, 48 hours post-treatment, read-out: viability of cells inhibited) was greater than 80%; with SU-DHL-4 cells [10], greater than 80%. For the same molecule, the “parent detected after incubation in mouse liver microsomes (area %)” value in data set [5] was 40%. The “cells in the sub-G1 phase” value with K562 cells was 3.19%; in the data set on SU-DHL-4 cells [6] it was 67.9%; in the data set with HL-60 cells it was 7.63%; in the data set with Raji cells [7] it was 68.4%. Besides, in data set [8], the “Stability in simulated gastric fluid (% at 4 h)” value was 109%. The “Plasma stability remaining % at 60 min, rat” value in “Plasma stability [9]” was 100%.
As for `COC(=O)[C@@]12OC[C@]34C([C@@H](O)[C@@H]1O)[C@@]1(C)CC(=O)C(OCC(=O)NCCN)=C(C)[C@@H]1C[C@H]3OC(=O)[C@H](OC(=O)C=C(C)C)[C@@H]24` (stereo partly drawn) [Compound 40, methyl (1R,2S,3S,3aS,3a1R,4R,6aR,7aR,11aS)-9-(2-((2-aminoethyl)amino)-2-oxoethoxy)-1,2-dihydroxy-8,11a-dimethyl-4-((3-methylbut-2-enoyl)oxy)-5,10-dioxo-1,4,5,6a,7,7a,10,11,11a,11b-decahydro-2H-3,3a1-(epoxymethano)dibenzo[de,g]chromene-3(3aH)-carboxylate], the “activity on five additional cell lines (in words)” value in data set [11] is listed as “moderate to good activities”. The “activity on viability of Raji cells (in words)” value with Raji cells [4] is listed as “moderate activity”.
Turning to `COC(=O)[C@@]12OC[C@]34C([C@@H](O)[C@@H]1O)[C@@]1(C)CC(=O)C(OC(=O)CNC(=O)OC(C)(C)C)=C(C)[C@@H]1C[C@H]3OC(=O)[C@H](OC(=O)C=C(C)C)[C@@H]24` (stereo partly drawn) [Compound 15, methyl (1R,2S,3S,3aS,3a1R,4R,6aR,7aR,11aS)-9-(((tert-butoxycarbonyl)glycyl)oxy)-1,2-dihydroxy-8,11a-dimethyl-4-((3-methylbut-2-enoyl)oxy)-5,10-dioxo-1,4,5,6a,7,7a,10,11,11a,11b-decahydro-2H-3,3a1-(epoxymethano)dibenzo[de,g]chromene-3(3aH)-carboxylate], in the data set on MOLM14 xenografts, the “tumor size response (in words)” value is “strong and rapid inhibitory response”. In addition, the “inhibition of cell viability (in words)” value in data set [12] is reported as “significantly inhibit cell viability”. In the data set on NOD/SCID mice (setting [16]), the “mice survived (of four)” value is listed as “two” and the survival was found to be 50%. For the same molecule, in the data set with NOD/SCID mice (setting [17]), the “toxicity in vivo (in words)” value is “obviously lethal for the majority of mice within the first 4 days” and the survival turned out to be 0%. Further, the “Stability in simulated intestinal fluid (% at 4 h)” value in data set [2] was 42%. For the same molecule, the “activity on viability of Raji cells (in words)” value in the data set with Raji cells [4] was “moderate inhibition”. Besides, the “Stability in simulated gastric fluid (% at 4 h)” value in data set [8] was 25%.
Turning to `COC(=O)[C@@]12OC[C@]34C([C@@H](O)[C@@H]1O)[C@@]1(C)CC(=O)C(OC(=O)C[C@H](C)N)=C(C)[C@@H]1C[C@H]3OC(=O)[C@H](OC(=O)C=C(C)C)[C@@H]24` (stereo partly drawn) [Compound 26, methyl (1R,2S,3S,3aS,3a1R,4R,6aR,7aR,11aS)-9-(((S)-3-aminobutanoyl)oxy)-1,2-dihydroxy-8,11a-dimethyl-4-((3-methylbut-2-enoyl)oxy)-5,10-dioxo-1,4,5,6a,7,7a,10,11,11a,11b-decahydro-2H-3,3a1-(epoxymethano)dibenzo[de,g]chromene-3(3aH)-carboxylate], the “Stability in simulated gastric fluid (% at 4 h)” value is 97%. In the data set on NOD/SCID mice (setting [16]), the “mice survived (of four)” value is given as “four” and the “toxicity in vivo (in words)” value is listed as “did not show any obvious signs of toxicity”. Also, in the data set with NOD/SCID mice (setting [17]), the “toxicity in vivo (in words)” value is on record as “did not show any obvious signs of toxicity”. In data set [13], the “percentage of brusatol converted from 26, human plasma” value is recorded as 47%. The “parent detected after incubation in mouse liver microsomes (area %)” value in data set [5] was determined as 87%. Also, the “percentage of brusatol converted from 26, rat plasma” value in [14] is reported as 60%. For the same molecule, the “Stability in simulated intestinal fluid (% at 4 h)” value in data set [15] is 76%.
